Target: binding of biotinylated human growth hormone (b-hGH) to the extracellular domain of its receptor (Homo sapiens, UniProt P01241)
Assay: ELISA of binding of biotinylated human growth hormone (b-hGH) to the extracellular domain of its receptor
Conditions: inhibition of b-hGH (about 1.5 nM) binding to receptor-coated plates; compounds re-tested at multiple concentrations
Description: A collection of heterocyclic aromatic compounds (384 total; 1 mmol each) was obtained from Aldrich Chemical Company or prepared as described in Holan et al., J. Chem Soc. C, 20-25 (1967)) incorporated herein by reference. Each compound was dissolved in dimethyl sulfoxide (DMSO) to yield a 100-mM solution and arrayed in 96-well polypropylene deep-well plates (Beckman). Dilutions (10-fold in DMSO) were prepared from the parent plates; these 10-mM stocks were then diluted 50-fold in the screening assay as described below (200 μM final concentration; 2% DMSO).
Human growth hormone (100 μM) in phosphate-buffered saline (PBS) was treated with 2 molar equivalents of EZ-Link Sulfo-NHS-LC-biotin™ (Pierce 21335™) according to the manufacturer's instructions. Binding of the biotinylated human growth hormone (b-hGH) to the extracellular domain of its receptor was assayed in an ELISA format. Briefly, Nunc Maxi-Sorb™ 96-well plates were treated with a solution of the receptor (2 μg/mL) in phosphate-buffered saline (PBS) overnight at 4° C. Plates were then blocked with a 0.2% solution of bovine serum albumin (BSA; Sigma A-7638) in PBS for 2 hours at room temperature. An appropriate dilution of b-hGH (generally about 1.5 nM final concentration in PBS containing 0.05% Tween-20 T detergent) was added to polypropylene plates containing aliquots of the screening collection (147 μL b-hGH to 3 μL compound in DMSO) or DMSO alone, and the mixtures were allowed to equilibrate at room temperature for approximately 45 min. These mixtures were then transferred to the receptor-coated plates and allowed to stand for 15 min. Plates were washed (10 times) with PBS/Tween-20™. Streptavidin-HRP conjugate (Zymed Laboratories 43-4323™) followed by TMB peroxidase reagent (Kirkegaard & Perry Laboratories 50-76-03™) was used to detect bound b-hGH. Several potential inhibitor compounds were re-tested at multiple concentrations. Table 1 below provides IC50 of the compounds tested.

Chain of binding of biotinylated human growth hormone (b-hGH) to the extracellular domain of its receptor (P01241 27-217): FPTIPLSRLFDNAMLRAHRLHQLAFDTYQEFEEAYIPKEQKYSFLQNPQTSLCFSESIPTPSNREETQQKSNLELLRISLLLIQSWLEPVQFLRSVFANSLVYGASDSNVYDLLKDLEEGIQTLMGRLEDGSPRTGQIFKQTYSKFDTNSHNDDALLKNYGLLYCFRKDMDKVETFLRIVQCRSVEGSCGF

Row | Structure (SMILES) | IC50 [µM]
1 | Clc1ccc2nc(C(Cl)(Cl)Cl)[nH]c2c1 [(i)] | 77
2 | ClC(Cl)(Cl)c1nc2ccccc2[nH]1 [(ii)] | 170
3 | Cn1c(C(Cl)(Cl)Cl)nc2ccccc21 [(iii)] | 150
4 | Cc1ccc2[nH]c(C(Cl)(Cl)Cl)nc2c1 [(iv)] | 98
5 | ClC(Cl)(Cl)c1nc2ccccc2o1 [(ix)] | > 1000
6 | Clc1cc2nc(C(Cl)(Cl)Cl)[nH]c2cc1Cl [(v)] | 51
7 | FC(F)(F)c1nc2cc(Cl)ccc2[nH]1 [(vi)] | > 1000
8 | Clc1ccc2[nH]cnc2c1 [(vii)] | > 1000
9 | Cc1nc2cc(Cl)ccc2[nH]1 [(viii)] | > 1000
10 | ClC(Cl)(Cl)c1nc2ccccc2s1 [(x)] | > 1000
11 | Cc1nc2ccccc2[nH]1 [(xi)] | > 1000
12 | c1ccc2[nH]c(-c3cscn3)nc2c1 [(xii)] | > 1000
13 | Cc1ccc2[nH]cnc2c1 [(xiii)] | > 1000
